Reference: US8716530B2, “Facially amphiphilic polyaryl and polyarylalkynyl polymers and oligomers and uses thereof” (The Trustess of the University of Pennsylvania, priority 2004, dated 2014)
In brackets after ≈: the same amount, converted by molar mass. Where two headings read alike, the source gives them in different places.

Columns and labels:
[1] = tested on: S. aureus; type: cell-based; details: S. aureus passaged at 0.5x MIC100; by passage 16 (17 consecutive passages)
[2] = tested on: Enterobacter cloacae; type: cell-based
[3] = tested on: Bacillus globigii; type: cell-based
[4] = tested on: Pseudomonas aeruginosa; type: cell-based
[5] = tested on: Enterococcus faecalis; assay: MIC100, clinical isolates of hospital-acquired pathogens (Table 7); type: cell-based; details: control strain ATCC 29212
[6] = tested on: B. anthracis; assay: microbe, parasite or virus in culture; type: cell-based; details: Bacillus anthracis
[7] = tested on: B. anthracis; assay: microbe, parasite or virus in culture; type: cell-based, Bacillus anthracis
[8] = tested on: Lovenox inhibition of Factor Xa (FXa) activity; assay: Chromogenic FXa assay: antagonism of Lovenox inhibition of Factor Xa; type: biochemical; details: fixed concentration of Lovenox, chromogenic substrate S-2765
Protocol: To assess the potential of the phenylalkynyl oligomers to act as antagonists of the low molecular weight heparins (LMWH), Compound 3 was assayed for its ability to antagonize the inhibition of Factor Xa (FXa) activity by the LMWH Lovenox was determined for Compound 3. Briefly, FXa activity in the presence of Lovenox and inhibitor was measured in a chromogenic assay using reagents purchased from DiaPharma. […] In the assay setup for Schild-plot analysis (KB determination), varying concentrations of Lovenox were incubated with AT for 5 minutes. Different concentrations of inhibitor were added to each row of wells, to construct curves of fixed inhibitor concentration, and lightly shaken and incubated for 20 minutes. FXa was then added and reaction was shaken and incubated for 10 minutes. The substrate (S-2765) was then added to initiate the clotting cascade and the 96-well plate was then shaken and read every 30 seconds for 7 minutes at 405 nm on a ThermoLabsystems Multiskan Spectrum. The single curve Lovenox titration experiments (IC50 determination) consisted of the same procedure, but with a fixed concentration of Lovenox (determined by a titration curve in the absence of inhibitor). The analysis of each curve was performed using GraphPad Prism version 4.00 for Windows.

In the case of `NCCc1cc(Br)cc(C#Cc2cccc(C#Cc3cc(Br)cc(CCN)c3)c2)c1` [Compound 3], the “increase in MIC on serial passage” value [1] is reported as “No consistent increase in the MIC”, the MIC100 Enterobacter cloacae [2] is reported as 1.7 µg/mL (≈ 3.25 µM) and the MIC100 Bacillus globigii [3] is reported as 3.4 µg/mL (≈ 6.51 µM). It also gave an MIC100 Pseudomonas aeruginosa [4] of 3.4 µg/mL (≈ 6.51 µM), a mic (MIC100) Enterococcus faecalis ATCC 29212 [5] of 1 µg/mL and an MIC ([6]; read-out: MIC100 B. anthracis 127) of 1 µg/mL (≈ 1.91 µM). For the same molecule, the MIC ([6]; read-out: MIC100 B. anthracis 1099) was 1 µg/mL (≈ 1.91 µM), the MIC ([6]; read-out: MIC100 B. anthracis 7611R) was 2 µg/mL (≈ 3.83 µM) and the MIC ([6]; read-out: MIC100 B. anthracis A3) was 1 µg/mL (≈ 1.91 µM). The MIC ([6]; read-out: MIC100 B. anthracis A19) was 1 µg/mL (≈ 1.91 µM), the MIC ([6]; read-out: MIC100 B. anthracis A58) was 1 µg/mL (≈ 1.91 µM) and the MIC ([6]; read-out: MIC100 B. anthracis A60) was 1 µg/mL (≈ 1.91 µM). It also gave an MIC ([6]; read-out: MIC100 B. anthracis A73) of 1 µg/mL (≈ 1.91 µM), an MIC ([6]; read-out: MIC100 B. anthracis A74) of 2 µg/mL (≈ 3.83 µM) and an MIC ([6]; read-out: MIC100 B. anthracis AC1) of 1 µg/mL (≈ 1.91 µM). It also gave an MIC ([6]; read-out: MIC100 B. anthracis RA3R) of 1 µg/mL (≈ 1.91 µM), an MIC ([6]; read-out: MIC100 B. anthracis Vollum) of 2 µg/mL (≈ 3.83 µM) and an MIC ([7]; Bacillus anthracis, 24 h, read-out: MIC100 B. anthracis (24 hr)) of 1 µg/mL (≈ 1.91 µM). The “Time course of growth inhibition of Bacillus anthracis” value ([7]; growth recorded at 2 hour intervals over 24 hours (FIG. 3)) was “complete inhibition of growth at early and late time points” and the IC50 [8] was 5.07 µM.
